Here are results for 9 compounds from patent US20240317754A1 (priority 2020, published 2024).

Read-outs that look alike come from different tables or passages of the source.

The subject of test [1] is SARS-CoV-2 variant B.1.351. In words: microbe, parasite or virus in culture. Type of test: cell-based.
For test [2], the system named is SARS-CoV-2 variant B.1.617.2. In words: microbe, parasite or virus in culture. Type of test: cell-based.
Test [3] relates to SARS-CoV-2 B.1.617.2 variants. As to conditions: in vivo.
The next test deals with SARS-CoV-2 variants. In words: microbe, parasite or virus in culture. Type of test: cell-based.
[4] abbreviates: Severe acute respiratory syndrome coronavirus 2, Vero C1008, 48 h.

With `CC(C)C(=O)OC[C@H]1O[C@@](C#N)(c2ccc3c(N)ncnn23)[C@H](O)[C@@H]1O` [ATV006, ((2R,3S,4R,5R)-5-(4-aminopyrrolo[2,1-f][1,2,4]triazin-7-yl)-5-cyano-3,4-dihydroxytetrahydrofuran-2-yl)methyl isobutyrate], in test [1] (setting [4]), the IC50 worked out at 1130 nM. In addition, in test [2] (setting [4]), the IC50 stood at 348 nM. Besides, in test [3], the “amount of viral genome (N gene) in lung tissue” value is on record as “significantly lower than that in the control group” and the “amount of viral subgenome (subgenomic N) in lung tissue” value is “significantly lower than that in the control group”.

As for `CCCC(=O)OC[C@H]1O[C@@](C#N)(c2ccc3c(N)ncnn23)[C@H](O)[C@@H]1O` [ATV009, ((2R,3S,4R,5R)-5-(4-aminopyrrolo[2,1-f][1,2,4]triazin-7-yl)-5-cyano-3,4-dihydroxytetrahydrofuran-2-yl)methyl butyrate], the IC50 in test [1] (setting [4]) stood at 1380 nM; in test [2] (setting [4]), 492 nM.

As to `CCCCCCCCC(=O)OC[C@H]1O[C@@](C#N)(c2ccc3c(N)ncnn23)[C@H](O)[C@@H]1O` [ATV010, ((2R,3S,4R,5R)-5-(4-aminopyrrolo[2,1-f][1,2,4]triazin-7-yl)-5-cyano-3,4-dihydroxytetrahydrofuran-2-yl)methyl nonanoate], the IC50 in test [1] (setting [4]) is 1000 nM; in test [2] (setting [4]) it was 455 nM.

As to `CCC(CC)C(=O)OC[C@H]1O[C@@](C#N)(c2ccc3c(N)ncnn23)[C@H](O)[C@@H]1O` [ATV011, ((2R,3S,4R,5R)-5-(4-aminopyrrolo[2,1-f][1,2,4]triazin-7-yl)-5-cyano-3,4-dihydroxytetrahydrofuran-2-yl)methyl 2-ethylbutanoate], the IC50 in test [1] (setting [4]) came out at 2300 nM; in test [2] (setting [4]), 408 nM.

On to `N#C[C@@]1(c2ccc3c(N)ncnn23)O[C@H](COC(=O)c2ccccc2)[C@@H](O)[C@H]1O` [ATV013, ((2R,3S,4R,5R)-5-(4-aminopyrrolo[2,1-f][1,2,4]triazin-7-yl)-5-cyano-3,4-dihydroxytetrahydrofuran-2-yl)methyl benzoate], for which the IC50 was 2430 nM in test [1] (setting [4]) and 965 nM in test [2] (setting [4]).

Take `N#C[C@@]1(c2ccc3c(N)ncnn23)O[C@H](COC(=O)C2CCCCC2)[C@@H](O)[C@H]1O` [ATV014, ((2R,3S,4R,5R)-5-(4-aminopyrrolo[2,1-f][1,2,4]triazin-7-yl)-5-cyano-3,4-dihydroxytetrahydrofuran-2-yl)methyl cyclohexanecarboxylate]: the IC50 is 248 nM in test [1], 210 nM in test [2] and less than 340 nM in the test with SARS-CoV-2 variants (Severe acute respiratory syndrome coronavirus 2). For the same compound, the “anti-SARS-CoV-2 activity relative to GS-441524” value in the test with SARS-CoV-2 variants (summary statement, in words) is listed as “twice that of GS-441524”.

Consider `CC(C)CC(=O)OC[C@H]1O[C@@](C#N)(c2ccc3c(N)ncnn23)[C@H](O)[C@@H]1O` [ATV017, ((2R,3S,4R,5R)-5-(4-aminopyrrolo[2,1-f][1,2,4]triazin-7-yl)-5-cyano-3,4-dihydroxytetrahydrofuran-2-yl)methyl 3-methylbutanoate], for which the IC50 in test [1] (setting [4]) stood at 2850 nM; in test [2] (setting [4]) it was 428 nM.

`CC(C)(C)C(=O)OC[C@H]1O[C@@](C#N)(c2ccc3c(N)ncnn23)[C@H](O)[C@@H]1O` [ATV018, ((2R,3S,4R,5R)-5-(4-aminopyrrolo[2,1-f][1,2,4]triazin-7-yl)-5-cyano-3,4-dihydroxytetrahydrofuran-2-yl)methyl pivalate]: the IC50 was determined as 785 nM in test [1] (setting [4]) and 229 nM in test [2] (setting [4]).

For the compound `N#C[C@@]1(c2ccc3c(N)ncnn23)O[C@H](CO)[C@@H](O)[C@H]1O` [GS-441524, reference compound], the IC50 in test [1] came to 1780 nM; in test [2] it was 1640 nM.

For orientation: IC50 means the midpoint of a concentration-inhibition curve. High values mean lower potency, low ones higher potency.
